Holding throughout (test): DTP human tumour cell line panel, 48 h
For test [1], the system named is A498 renal.
Test [2] deals with HOP-62 NSCLC.
Test [3] has as its system IGROV1 ovarian.
Test [4] deals with RPMI-8226 leukemia.
For test [5], the system named is SNB-75 CNS.
Test [6] deals with UACC-257 melanoma.
For test [7], the system named is UO-31 renal.
The subject of test [8] is DMS 114 small cell lung.
For test [9], the system named is KM20L2 colon.

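Cultured in 96-well plates, cells were exposed to test compound for 48 hours across five concentrations. Abbreviation: GI50, concentration required for 50% inhibition of growth. TGI marks complete inhibition of growth.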 Some results are limits rather than exact numbers.

As for `COc1ccc(OC)c(/C=C/C(=O)c2ccc(SC)cc2)c1`, the GI50 (in general, the concentration that inhibits growth by half) in [1] is 13.7 µM; in test [2], 18.4 µM; in test [3], 11 µM; in [4], 1.66 µM; in test [5], 8.88 µM; in test [6] it was 16.9 µM. Besides, the GI50 in test [7] is 15.5 µM. Also, the TGI – broadly, the concentration giving total growth inhibition – was 30.3 µM in test [1]; 52.3 µM in test [2]; 27.1 µM in test [3]; 7.05 µM in test [4]; greater than 100 µM in [5]; 33.8 µM in test [6]. Moreover, in [7], the concentration for total growth inhibition (TGI) turned out to be 30.7 µM.
Turning to `CCN(CC)CCn1nc2c3c(cccc3c1=O)-c1ccccc1-2`, the GI50 in [1] is 2.98 µM; in [2], 2.18 µM; in [3] it was 2.06 µM; in test [4] it was 3.19 µM; in [5], 3.27 µM; in test [6], 1.96 µM. In test [7], the GI50 was 1.25 µM. The TGI in test [1] is 9.95 µM; in test [2], 15.9 µM; in test [3], greater than 50 µM; in test [4], 24.2 µM; in test [5], 11.1 µM; in test [6] it was 10.7 µM. The molecule further displayed a TGI in [7] greater than 50 µM.
Turning to `COC(=O)CCCCCCCCC(=O)c1c(C)[nH]c(/C=C2\N=C(c3ccc[nH]3)C=C2OC)c1C`, the GI50 is greater than 100 µM in test [1]; 11.2 µM in test [2]; greater than 67.3 µM in test [3]; 6.38 µM in [4]; greater than 31 µM in [5]; 14.4 µM in test [6]. Further, the GI50 in test [7] was 30.5 µM. In addition, the TGI in test [1] was greater than 100 µM; in [2] it was greater than 57.9 µM; in test [3], greater than 100 µM; in test [4], greater than 30.6 µM; in test [5], greater than 83.7 µM; in [6], 87.8 µM. In addition, the TGI in test [7] was greater than 73.6 µM.
For `Cn1cc(C2=C(c3cccc(Cl)c3)C(=O)NC2=O)c2ccccc21`, the GI50 in test [1] was 8.25 µM; in test [2], greater than 25 µM; in test [3], 12.3 µM; in test [4], greater than 25 µM; in test [5], 6.65 µM; in [6] it was 5.46 µM. For the same molecule, the GI50 in [7] is 8.3 µM. Further, the TGI in test [1] was greater than 25 µM; in test [2] it was greater than 25 µM; in [3] it was greater than 25 µM; in [4], greater than 25 µM; in test [5], greater than 25 µM; in test [6], 17.7 µM. This molecule also gave a concentration for total growth inhibition (TGI) in [7] greater than 25 µM.
For `O=C(Nc1ccc(I)cc1F)c1cc(F)ccc1O`, the GI50 in test [1] was 0.163 µM; in test [2] it was 1.77 µM; in test [3] it was 0.404 µM; in [4], 0.253 µM; in test [5], 0.225 µM; in test [6], 0.392 µM. In [7], the GI50 was 0.236 µM. Also, the concentration for total growth inhibition (TGI) in test [1] is 0.634 µM; in test [2] it was 6.46 µM; in [3], greater than 100 µM; in [4] it was 0.888 µM; in [5], 2.31 µM; in test [6] it was 2.89 µM. Also, in test [7], the TGI was found to be 1.34 µM.
As to `O=C(O)c1ccccc1/C=C1/Nc2ccccc2C1=O`, the TGI in [1], in [2], in [3], in test [4], in test [5] and in test [6] was greater than 100 µM throughout. This molecule showed a TGI in test [7] greater than 100 µM.
Turning to `CC1(C)CC(=O)C=C(NC(=O)c2ccccc2)C1`, the TGI in test [1], in [8], in [2], in [3], in test [4] and in test [5] was greater than 100 µM in each case. Further, the TGI in test [6] and in test [7] was greater than 100 µM throughout.
As to `Fc1ccc(-c2ncn(C3CCNCC3)c2-c2ccnc(Oc3ccc(Oc4ccccc4)cc3)n2)cc1`, the GI50 was 3.57 µM in test [1]; 4.05 µM in [2]; 3.78 µM in [3]; 4.99 µM in test [4]; 3.4 µM in test [5]; 4.71 µM in [6]. For the same molecule, in test [7], the GI50 was 2.96 µM. Further, the TGI in [1] was 7.01 µM; in [2] it was 7.64 µM; in test [3], 7.5 µM; in test [4], 9.91 µM; in test [5] it was 6.67 µM; in test [6], 8.54 µM. Also, the TGI in test [7] came out at 6.29 µM.
For `CC(C)=CCCC1(C)C=Cc2c(ccc3c2[nH]c2cc(O)c(C)cc23)O1` (stereo not given), the TGI in test [8] was 19.8 µM; in [2], 8.71 µM; in test [3] it was greater than 2.5 µM; in test [9], 10.4 µM; in test [4], 18.9 µM; in [7], greater than 2.5 µM. The results for the GI50 in test [2] and in [9] were 4.74 µM and 5.22 µM, respectively.
For the molecule `CN1CCN(Cc2ccc(NC(=O)c3cncc(C#Cc4cncc5[nH]ncc45)c3)cc2C(F)(F)F)CC1`, the GI50 in [1] was 0.275 µM; in test [2], 0.882 µM; in test [3], 0.454 µM; in [4], 0.761 µM; in test [5], 0.793 µM; in [6] it was 0.5 µM. Further, the GI50 in test [7] was 1.01 µM. In addition, the TGI was 1.56 µM in test [1]; 4.86 µM in [2]; 1.45 µM in test [3]; 2.48 µM in test [4]; 2.51 µM in [5]; 4.48 µM in test [6]. This molecule also showed a TGI in test [7] of 2.52 µM.
As to `CCc1cc(Nc2nccc(-c3c(-c4ccc(OC)c(C(=O)Nc5c(F)cccc5F)c4)nc4ccccn34)n2)c(OC)cc1N1CCC(N2CCN(S(C)(=O)=O)CC2)CC1`, the GI50 in test [1] was greater than 100 µM; in [2] it was greater than 100 µM; in test [3], greater than 100 µM; in test [4], greater than 100 µM; in test [5], greater than 50.1 µM; in [6], greater than 40.1 µM. For the same molecule, the GI50 in [7] was greater than 100 µM. Also, the TGI in test [1], in [2], in test [3], in test [4], in test [5] and in test [6] was greater than 100 µM each time. In [7], this molecule returned a TGI greater than 100 µM.

Source of the values: PubChem BioAssay (NCI).
